# Laboratory results taken from US5391540A, “Substituted pyridine compounds” (Rohm and Haas Company, priority 1993, dated 1995).
# Key:
# Assay type in all cases: in vivo
# [1] = test system: Barnyardgrass; assay: Pre-emergent herbicidal activity (Table A); details: Echinochloa crus-galli, pre-emergence, Bygr, 11.2 kg/ha, 10-14 days, read-out: herbicidal rating (% inhibition)
# How it was run: (§1)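 Seeds or vegetative propagules were set on topsoil compacted to 0.95 to 1.27 cm below the pan rim, then covered with soil thoroughly mixed with a known amount of test compound in acetone or water carrier. Ratings follow a scale of percent inhibition per species.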
# [2] = test system: Cocklebur; assay: Pre-emergent herbicidal activity (Table A); details: Xanthium strumarium, pre-emergence, Cobu, 11.2 kg/ha, 10-14 days, read-out: herbicidal rating (% inhibition)
# How it was run: as §1
# [3] = test system: Downy Brome; assay: Pre-emergent herbicidal activity (Table A); details: Bromus tectorum, pre-emergence, Dobr, 11.2 kg/ha, 10-14 days, read-out: herbicidal rating (% inhibition)
# How it was run: as §1
# [4] = test system: Morningglory; assay: Pre-emergent herbicidal activity (Table A); details: Ipomoea, pre-emergence, Mogl, 11.2 kg/ha, 10-14 days, read-out: herbicidal rating (% inhibition)
# How it was run: as §1
# [5] = test system: Velvetleaf; assay: Pre-emergent herbicidal activity (Table A); details: Abutilon theophrasti, pre-emergence, Vele, 11.2 kg/ha, 10-14 days, read-out: herbicidal rating (% inhibition)
# How it was run: as §1
# [6] = test system: Yellow Nutsedge; assay: Pre-emergent herbicidal activity (Table A); details: Cyperus, pre-emergence, Yens, 11.2 kg/ha, 10-14 days, read-out: herbicidal rating (% inhibition)
# How it was run: as §1
# [7] = test system: Bygr; assay: plant injury after spraying emerged plants (Table D); parameters: scale not given here
# From the text: (§2) Topsoil (silt loam) is sieved through a screen having 1.27 cm openings. […] This mixture is steam sterilized and then placed in aluminum pans 6.985 cm deep having ten holes in the bottom each 0.635 cm in diameter. The soil mixture is compacted to a depth of 1.27 cm. from the top of the pan. A predetermined number of seeds of each of several dicotyledonous and monocotyledonous annual plant species and/or vegetative propagules for the perennial plant species are placed on the soil and pressed into the soil surface. The seeds and/or vegetative propagules are covered with 1.27 cm of a mixture of 50% topsoil and 50% of a mixture of Canadian sphagnum peat moss, vermiculite and a wetting agent. The pans are then placed on a capillary mat on a greenhouse bench and subirrigated as needed.
# (§3) In the following Table D the legends used to identify the plant species are the same as those used in the preceding Table B.
# [8] = test system: Cobu; assay: as above; parameters: scale not given here
# From the text: as §2, §3
# [9] = test system: Corn; assay: as above; parameters: scale not given here
# From the text: as §2, §3
# [10] = test system: Grft; assay: as above; parameters: scale not given here
# From the text: as §2, §3
# [11] = test system: Lacg; assay: as above; parameters: scale not given here
# From the text: as §2, §3
# [12] = test system: Prmi; assay: as above; parameters: scale not given here
# From the text: as §2, §3
# [13] = test system: Rice; assay: as above; parameters: scale not given here
# From the text: as §2, §3
# [14] = test system: Sobe; assay: as above; parameters: scale not given here
# From the text: as §2, §3
# [15] = test system: Whez; assay: as above; parameters: scale not given here
# From the text: as §2, §3
# [16] = test system: Dobr; assay: as above
# From the text: Topsoil (silt loam) is sieved through a screen having 1.27 cm openings. In some of the tests the soil was mixed with fertilizer (1225 g/cu. m of 12/5/9 containing isobutylidene diurea), while in other tests the fertilizer was omitted. This mixture is steam sterilized and then placed in aluminum pans 6.985 cm deep having ten holes in the bottom each 0.635 cm in diameter. The soil mixture is compacted to a depth of 1.27 cm. from the top of the pan. A predetermined number of seeds of each of several dicotyledonous and monocotyledonous annual plant species and/or vegetative propagules for the perennial plant species are placed on the soil and pressed into the soil surface. The seeds and/or vegetative propagules are covered with 1.27 cm of a mixture of 50% topsoil and 50% of a mixture of Canadian sphagnum peat moss, vermiculite and a wetting agent. The pans are then placed on a capillary mat on a greenhouse bench and subirrigated as needed. After the plants reach the desired stage (9 to 14 days, 1 to 3 true leaf stage), each pan (except the control pans) is removed to a spraying chamber and sprayed by means of an atomizer, operating at a spray pressure of 170.3 kPa ([…]) at the application rates noted in Table D. In the spray solution is an amount of an emulsifying agent mixture (35% butylamine salt of dodecylbenzenesulfonic acid and 65% tall oil condensed with ethylene oxide in the ratio of 11 mols of ethylene oxide/mol of tall oil) to give a spray solution or suspension. The spray solution or suspension contains a sufficient amount of the candidate chemical in order to give application rates of the active ingredient corresponding to those shown in Table D below while applying a total amount of solution or suspension equivalent to 1870 L/Ha (200 gallons/acre). The pans are returned to the greenhouse and watered as before and the injury to the plants as compared to the control pans is observed at approximately 10-14 days (usually 11 days).
# as §3
smiles,measurement,setting,value
"COC(=O)c1c(OC)nc(C(F)(F)F)c(N=CSC)c1CC(C)C [Compound 77, 3-pyridinecarboxylic acid, 2-methoxy-4-(2-methylpropyl)-5-[[(methylthio)methylene]amino]-6-(trifluoromethyl)-, methyl ester]",inhibition at 11200 g/ha,[1],75 to 100%
same,inhibition at 11200 g/ha,[2],50 to 74%
same,inhibition at 11200 g/ha,[3],75 to 100%
same,inhibition at 11200 g/ha,[4],75 to 100%
same,inhibition at 11200 g/ha,[5],75 to 100%
same,inhibition at 11200 g/ha,[6],75 to 100%
same,"plant injury rating, Bygr",[7]; 1.1210 kg/ha,0
same,"plant injury rating, Bygr",[7]; 5.6050 kg/ha,2
same,"plant injury rating, Bygr",[7]; 11.2100 kg/ha,3
same,"plant injury rating, Cobu",[8]; 2.8025 kg/ha,1
same,"plant injury rating, Cobu",[8]; 11.2100 kg/ha,3
same,"plant injury rating, Corn",[9]; 2.8025 kg/ha,2
same,"plant injury rating, Corn",[9]; 5.6050 kg/ha,2
same,"plant injury rating, Corn",[9]; 11.2100 kg/ha,3
same,"plant injury rating, Grft",[10]; 1.1210 kg/ha,0
same,"plant injury rating, Grft",[10]; 2.8025 kg/ha,1
same,"plant injury rating, Lacg",[11]; 1.1210 kg/ha,2
same,"plant injury rating, Lacg",[11]; 2.8025 kg/ha,3
same,"plant injury rating, Lacg",[11]; 5.6050 kg/ha,3
same,"plant injury rating, Lacg",[11]; 11.2100 kg/ha,3
same,"plant injury rating, Prmi",[12]; 1.1210 kg/ha,0
same,"plant injury rating, Prmi",[12]; 2.8025 kg/ha,0
same,"plant injury rating, Prmi",[12]; 5.6050 kg/ha,0
same,"plant injury rating, Rice",[13]; 1.1210 kg/ha,0
same,"plant injury rating, Rice",[13]; 2.8025 kg/ha,0
same,"plant injury rating, Rice",[13]; 5.6050 kg/ha,0
same,"plant injury rating, Rice",[13]; 11.2100 kg/ha,0
same,"plant injury rating, Sobe",[14]; 1.1210 kg/ha,1
same,"plant injury rating, Sobe",[14]; 2.8025 kg/ha,1
same,"plant injury rating, Whez",[15]; 1.1210 kg/ha,0
same,"plant injury rating, Whez",[15]; 2.8025 kg/ha,0
same,"plant injury rating, Whez",[15]; 5.6050 kg/ha,0
same,"plant injury rating, Dobr",[16]; 1.1210 kg/ha,0
same,"plant injury rating, Dobr",[16]; 2.8025 kg/ha,0
same,"plant injury rating, Dobr",[16]; 11.2100 kg/ha,0
"COC(=O)c1c(OC)nc(C(F)(F)F)c(C(=O)NCCCBr)c1CC(C)C [Compound 97, 3-pyridinecarboxylic acid, 5-[[(3-bromopropyl)amino)carbonyl]-2-methoxy-4-(2-methylpropyl)-6-(trifluoromethyl)-, methyl ester]",inhibition at 11200 g/ha,[1],75 to 100%
same,inhibition at 11200 g/ha,[2],0 to 24%
same,inhibition at 11200 g/ha,[3],50 to 74%
same,inhibition at 11200 g/ha,[4],50 to 74%
same,inhibition at 11200 g/ha,[5],50 to 74%
same,inhibition at 11200 g/ha,[6],0 to 24%
same,"plant injury rating, Bygr",[7]; 0.0701 kg/ha,0
same,"plant injury rating, Bygr",[7]; 0.2803 kg/ha,0
same,"plant injury rating, Bygr",[7]; 1.1210 kg/ha,0
same,"plant injury rating, Bygr",[7]; 5.6050 kg/ha,0
same,"plant injury rating, Cobu",[8]; 0.0701 kg/ha,0
same,"plant injury rating, Cobu",[8]; 0.2803 kg/ha,0
same,"plant injury rating, Cobu",[8]; 1.1210 kg/ha,0
same,"plant injury rating, Cobu",[8]; 5.6050 kg/ha,0
same,"plant injury rating, Corn",[9]; 0.0701 kg/ha,0
same,"plant injury rating, Corn",[9]; 0.2803 kg/ha,0
same,"plant injury rating, Corn",[9]; 1.1210 kg/ha,0
same,"plant injury rating, Corn",[9]; 5.6050 kg/ha,0
same,"plant injury rating, Grft",[10]; 0.0701 kg/ha,0
same,"plant injury rating, Grft",[10]; 0.2803 kg/ha,0
same,"plant injury rating, Grft",[10]; 1.1210 kg/ha,0
same,"plant injury rating, Grft",[10]; 5.6050 kg/ha,0
same,"plant injury rating, Lacg",[11]; 0.0701 kg/ha,0
same,"plant injury rating, Lacg",[11]; 0.2803 kg/ha,0
same,"plant injury rating, Lacg",[11]; 1.1210 kg/ha,2
same,"plant injury rating, Lacg",[11]; 5.6050 kg/ha,0
same,"plant injury rating, Prmi",[12]; 0.0701 kg/ha,0
same,"plant injury rating, Prmi",[12]; 0.2803 kg/ha,0
same,"plant injury rating, Prmi",[12]; 1.1210 kg/ha,0
same,"plant injury rating, Prmi",[12]; 5.6050 kg/ha,0
same,"plant injury rating, Rice",[13]; 0.0701 kg/ha,0
same,"plant injury rating, Rice",[13]; 0.2803 kg/ha,0
same,"plant injury rating, Rice",[13]; 1.1210 kg/ha,0
same,"plant injury rating, Rice",[13]; 5.6050 kg/ha,0
same,"plant injury rating, Sobe",[14]; 0.0701 kg/ha,0
same,"plant injury rating, Sobe",[14]; 0.2803 kg/ha,0
same,"plant injury rating, Sobe",[14]; 1.1210 kg/ha,0
same,"plant injury rating, Sobe",[14]; 5.6050 kg/ha,0
same,"plant injury rating, Whez",[15]; 0.0701 kg/ha,0
same,"plant injury rating, Whez",[15]; 0.2803 kg/ha,0
same,"plant injury rating, Whez",[15]; 1.1210 kg/ha,0
same,"plant injury rating, Whez",[15]; 5.6050 kg/ha,0
same,"plant injury rating, Dobr",[16]; 0.0701 kg/ha,0
same,"plant injury rating, Dobr",[16]; 0.2803 kg/ha,0
same,"plant injury rating, Dobr",[16]; 1.1210 kg/ha,0
same,"plant injury rating, Dobr",[16]; 5.6050 kg/ha,0
